Source: ChEMBL document CHEMBL1142460, “2,4(5)-Diarylimidazoles: synthesis and biological evaluation of a new class of sodium channel blockers against hNa(v)1.2” (Bioorg Med Chem Lett, 2008)

Key:
[1] = molecular target: Sodium channel protein type 2 subunit alpha (Homo sapiens) (UniProt Q99250); experiment: Inhibition of Nav1.2 channel in HEK cells at 10 uM by patch clamp technique; assay type: cell-based; design: scale not given: the % may be the effect or the level left; conditions: HEK293
[2] = molecular target: Sodium channel protein type 2 subunit alpha (Homo sapiens) (UniProt Q99250); experiment: Inhibition of Nav1.2 channel in HEK cells at 100 uM by patch clamp technique; assay type: cell-based; design: scale not given: the % may be the effect or the level left; conditions: HEK293

Sequence of Sodium channel protein type 2 subunit alpha (Homo sapiens) (Q99250 whole entry, looked up): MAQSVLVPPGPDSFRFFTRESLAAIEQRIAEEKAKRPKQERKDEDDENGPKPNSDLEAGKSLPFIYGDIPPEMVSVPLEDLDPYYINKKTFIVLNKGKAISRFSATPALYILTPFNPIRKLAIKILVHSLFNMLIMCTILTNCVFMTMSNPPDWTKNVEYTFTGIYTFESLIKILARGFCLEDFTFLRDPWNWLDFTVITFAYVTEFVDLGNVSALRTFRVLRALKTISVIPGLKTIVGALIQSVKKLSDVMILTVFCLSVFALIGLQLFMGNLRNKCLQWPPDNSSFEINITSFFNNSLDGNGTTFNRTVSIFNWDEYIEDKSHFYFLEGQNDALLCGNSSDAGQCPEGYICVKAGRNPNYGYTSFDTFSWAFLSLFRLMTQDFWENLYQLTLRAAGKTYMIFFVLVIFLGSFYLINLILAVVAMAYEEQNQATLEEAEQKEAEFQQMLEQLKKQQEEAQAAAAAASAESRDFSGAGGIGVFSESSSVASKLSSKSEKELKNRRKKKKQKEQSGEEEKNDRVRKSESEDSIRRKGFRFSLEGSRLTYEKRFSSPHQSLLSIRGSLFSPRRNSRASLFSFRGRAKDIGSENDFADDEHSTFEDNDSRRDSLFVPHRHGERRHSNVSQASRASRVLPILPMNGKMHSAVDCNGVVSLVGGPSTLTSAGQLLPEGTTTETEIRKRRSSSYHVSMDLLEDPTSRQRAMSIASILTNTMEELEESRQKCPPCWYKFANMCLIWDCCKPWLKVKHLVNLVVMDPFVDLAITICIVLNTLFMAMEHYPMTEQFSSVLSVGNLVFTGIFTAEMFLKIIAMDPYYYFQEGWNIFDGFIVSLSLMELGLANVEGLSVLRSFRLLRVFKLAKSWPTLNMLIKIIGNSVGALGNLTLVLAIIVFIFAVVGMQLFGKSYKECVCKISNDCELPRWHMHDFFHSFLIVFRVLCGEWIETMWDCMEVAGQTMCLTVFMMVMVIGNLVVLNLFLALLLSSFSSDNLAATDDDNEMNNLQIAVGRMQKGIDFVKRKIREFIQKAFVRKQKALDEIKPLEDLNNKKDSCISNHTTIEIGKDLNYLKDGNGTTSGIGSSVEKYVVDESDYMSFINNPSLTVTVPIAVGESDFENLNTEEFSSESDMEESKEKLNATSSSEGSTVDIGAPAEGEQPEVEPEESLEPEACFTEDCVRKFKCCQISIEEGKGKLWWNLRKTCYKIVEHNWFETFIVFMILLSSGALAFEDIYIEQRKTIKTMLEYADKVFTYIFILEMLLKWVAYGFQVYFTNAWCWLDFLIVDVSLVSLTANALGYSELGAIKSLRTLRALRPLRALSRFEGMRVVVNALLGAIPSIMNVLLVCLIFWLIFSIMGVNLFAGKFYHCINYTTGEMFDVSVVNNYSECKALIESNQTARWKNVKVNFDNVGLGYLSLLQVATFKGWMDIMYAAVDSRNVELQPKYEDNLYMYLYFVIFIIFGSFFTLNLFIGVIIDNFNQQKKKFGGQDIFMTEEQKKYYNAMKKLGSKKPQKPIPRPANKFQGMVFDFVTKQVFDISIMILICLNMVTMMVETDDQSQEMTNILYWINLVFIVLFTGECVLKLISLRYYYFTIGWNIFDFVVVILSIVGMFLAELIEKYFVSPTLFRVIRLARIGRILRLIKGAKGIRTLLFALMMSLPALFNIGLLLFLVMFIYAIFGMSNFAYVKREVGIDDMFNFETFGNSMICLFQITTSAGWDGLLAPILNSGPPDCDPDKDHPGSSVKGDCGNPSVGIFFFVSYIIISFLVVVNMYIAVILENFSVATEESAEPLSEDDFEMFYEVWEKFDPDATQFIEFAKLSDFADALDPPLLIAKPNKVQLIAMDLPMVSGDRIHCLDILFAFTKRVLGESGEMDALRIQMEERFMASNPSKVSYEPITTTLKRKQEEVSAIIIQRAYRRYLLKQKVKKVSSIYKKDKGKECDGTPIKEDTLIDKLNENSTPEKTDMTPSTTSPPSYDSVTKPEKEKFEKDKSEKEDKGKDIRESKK

SMILES	Activity [1] [%]	Activity [2] [%]
c1ccc(-c2c[nH]c(C3CCCCC3)n2)cc1	26.7	91.5
c1ccc(-c2c[nH]c(-c3ccncc3)n2)cc1	8	40.7
c1ccc(-c2c[nH]c(-c3ccsc3)n2)cc1	5.1	70.9
O=C1NC(=O)C(c2ccccc2)(c2ccccc2)N1	10.6	21.2
c1ccc(-c2c[nH]c(-c3ccco3)n2)cc1	2.7	37.7
c1ccc(-c2c[nH]c(-c3ccccc3)n2)cc1	7.8	80.5
c1ccc(-c2c[nH]c(-c3cccnc3)n2)cc1	4.7	22.5
c1ccc(-c2c[nH]c(-c3cc4ccccc4o3)n2)cc1	37.7	72.4
Nc1nnc(-c2cccc(Cl)c2Cl)c(N)n1	12.1	35.1
c1ccc(-c2c[nH]c(-c3ccoc3)n2)cc1	11.9	27.3
